Reference: patent publication US9880171B2, “iASPP phosphorylation and metastatic potential” (LUDWIG INSTITUTE FOR CANCER RESEARCH LTD., priority 2012, dated 2018)

What was measured:
B16 melanoma cells = assay: apoptosis by Sub-G1 FACS analysis, Example 10, B16 cells; type: cell-based, mouse
Experimental: (§1) FIG. 20. Restoring p53 by inhibiting mdm2 and iASPP suppresses melanoma growth in vitro and in vivo. FIG. 20A. H1299 cells were treated with DMSO or 10 μM nocodazole in the presence or absence of 2 or 10 μM of mitosis-related kinase inhibitors as indicated. […] FIG. 20B. Left panel: representative p53 level after Nutlin3 treatment for 24 hours in a variety of cells. Right bar graphs show the sub-G1 proportion of WM278 after treatment as that described in FIG. 19B (in upper panel, 10 μM and 20 μM Nutlin3 were used in parallel for comparison). From left to right of the upper right bar graph of FIG. 20B, the bars correspond to DMSO, Nut and JNJ+Nut, respectively. From left to right of the bottom bar graph of FIG. 20B, the bars correspond to DMSO, JNJ, Nut and JNJ+Nut, respectively. FIG. 20C. Me300, SK-MEL37, and B16 cells were treated as above (For B16 panel, 10 μM Nutlin3 was used) and sub-G1 proportion was analyzed. In (B) and (C), the bar graphs (mean±SD) were derived from three independent experiments. *p<0.05. FIG. 20D. Left panel: untreated B16 cells were subcutaneously injected into mice at day 1. […] Compound administration and tumor size measurement were repeated every two days from day 7 onwards. Bar graphs are shown as mean±SD (*p<0.05, n=6). FIG. 20E. […]
FIG. 22. […] Me300, SK-MEL37, and B16 cells were treated as described herein and sub-G1 cells were analyzed as described herein.

[1] = system: iASPP phosphorylated at ser 113; assay: phospho-ser113 iASPP western blot in nocodazole-treated U2OS cells; type: cell-based, human; conditions: nocodazole 1 μM 16 hours, 0.5 μM JNJ-7706621
Experimental: For the floating and adherent cells, the rounded (mitotic rich) cells were separated from the adherent cells after 24 hours treatment with nocodazole. Lysates were separated on a 6% SDS PAGE gel and proteins analysed by conventional western blotting. iASPP phosphor-[…] was detected using the antibody from rabbit 42310 as described in FIG. 23A, and total iASPP was detected by re-probing the blot with antibody LX049.3. Nucleolin was used as a loading control. […] Consistent with enhanced iASPP phosphorylation in nocodazole arrested mitotic cells, enhanced iASPP phosphorylation on ser 113 was also observed in the floating cells, which are mostly mitotic cells, and not in adherent cells (FIG. 23B). Total iASPP was detected by re-probing the blot with antibody LX049.3. Additionally, the specific binding of iASPP antibody (42310) to phosphorylated ser 113 were evaluated by determining the failure of iASPP antibody (42310) to bind when the protein is not phosphorylated at ser 113. Since CDK kinase phosphorylates iASPP at ser 113, CDK inhibitor JNJ-7706621 was used to treat human U2OS cells. […] Western blotting was carried out as described in FIG. 23B using an 8% SDS PAGE gel. When compared to untreated cells, binding of phosphor-ser 113 specific […] antibody was not observed in the presence 0.5 μM JNJ-7706621 (FIG. 23C). Total iASPP was detected by re-probing the blot with antibody LX049.3.

[2] = system: iASPP modification in H1299 cells; assay: nocodazole-induced iASPP modification in H1299 cells, G2/M kinase inhibitor panel (immunoblotting); type: cell-based, human; conditions: panel of 15 G2/M kinase inhibitors, 2-10 μM, 10 μM nocodazole overnight
Experimental: FIG. 12. […] FIG. 12A. […] FIG. 12B. […] FIG. 12C.
FIG. 13. FIG. 13A. […] FIG. 13B.
FIG. 20. […] FIG. 20A. […] Bar=20 μm.
For WB, cells were lysed in buffer containing 8 M urea, 1 M thiourea, 0.5% CHAPS, 50 mM DTT, and 24 mM spermine. A total of 40 μg of protein extract was loaded per lane into SDS-polyacrylamide gels. Gels were transferred onto nitrocellulose membrane (Protran) and the resulting blots incubated first with primary antibody overnight at 4° C. and then with the appropriate secondary horseradish peroxidize-conjugated antibody (Dako). The results were visualized by enhanced chemiluminescent detection (Amersham Biosciences) using X-ray film (Fujifilm).

[3] = system: p53 expression in SK-MEL37, WM278 and Me300 cells; assay: p53 level after Nutlin3 treatment, human melanoma cells; type: cell-based
Experimental: as §1, with “20E. Lower panels show representative images of isolated tumors. Right panel: representative H & E staining in B16 tumor section. Bar=20 μm.” for “20E.”

[4] = system: WM278, Me300 and SK-MEL37 melanoma cell lines; assay: p53-dependent apoptosis assay (subG1 DNA content, PI/FACS), Example 8; type: cell-based, human; conditions: 0.3 μM K00616a, 20 μM nutlin3, 1 μM PLX4032, agent alone, 72 hours
Experimental: (§2) Cells were transfected with siRNA as shown and pre-seeded on 6 well plates ON, 0.3 μM cyclin B1/cdk1 inhibitors K00616a were then added for 48 hours to block iASPP modification. Cells were then treated with 0.3 μM K00616a, 20 μM nutlin3, or combinations of these drugs for another 72 hours. Cells were collected and cell cycle status, growth potential, and protein expression pattern were then determined by PI staining/FACS analysis, colony formation assay, and WB, respectively. […] Cells were pre-seeded on 6 well plates for overnight, 0.3 μM cyclin B1/cdk1 inhibitors K00616a were then added for 48 hours to block iASPP modification. Cells were then treated with 0.3 μM K00616a, 20 μM nutlin3, 1 μM PLX4032, or combinations of these drug for another 72 hours. Cells were collected and cell cycle status, growth potential, and protein expression pattern were then determined by PI staining/FACS analysis, colony formation assay, and WB, respectively.
Cells were harvested, washed and fixed in ice-cold 70% EtOH. […] After 30 min RT incubation cells were analyzed by flow cytometry.
WM278 and Me300 also express wild type p53, whereas SK-MEL37 expresses mutant p53. […] Wild type p53 function was measured by a p53-dependent apoptosis assay, detecting the percentage of cells containing subG1 DNA content and growth suppression in a clonogenic survival assay.

[5] = system: WM278, Me300 and SK-MEL37 melanoma cell lines; assay: clonogenic survival / colony formation assay, Example 8
Experimental: as §2
After drugs treatment, cells were digested, counted, and seed in 6-well plates (100, 1 000, 10 000 cells/well). […]
The ability of K00616a to reactivate wild type p53 function in melanoma cells was tested in three melanoma cell lines that all express B-RAFV600E. […] Wild type p53 function was measured by a p53-dependent apoptosis assay, detecting the percentage of cells containing subG1 DNA content and growth suppression in a clonogenic survival assay.

Compound | increase in Nutlin3-induced apoptosis (B16 melanoma cells) | binding of phosphor-ser 113 specific anti-iASPP antibody (iASPP ser 113 phosphorylation) [1] | prevention of nocodazole-induced iASPP modification [2] | optimal concentration of Nutlin3 to induce maximal p53 expression ([3]; SK-MEL37) [µM] | optimal concentration of Nutlin3 to induce maximal p53 expression ([3]; WM278 and Me300 cells) [µM] | apoptotic cell death (subG1) [4] | growth suppression (colonies) ([5]; WM278, Me300 and SK-MEL37, agent alone) | effect on the growth suppression effects of PLX4032 ([5]; added alone to PLX4032)
Nc1nc(Nc2ccc(S(N)(=O)=O)cc2)nn1C(=O)c1c(F)cccc1F [JNJ-7706621] | 3-4 fold | not observed | most potent inhibitor of iASPP modification |  |  |  |  | 
COc1ccc(C2=N[C@@H](c3ccc(Cl)cc3)[C@@H](c3ccc(Cl)cc3)N2C(=O)N2CCNC(=O)C2)c(OC(C)C)c1 [Nutlin3] |  |  |  | 2 | 20 | very low rates of apoptotic cell death | limited | minimal effect
